# Several values for one entry are separate records, joined by “and”; a condition that tells them apart may be missing. Equal entries are not always repeated. Where two headings read alike, the source gives them in different places.
# Legend:
# [1] = system: MV4;11, MOLM-13 and RS4;11 acute leukemia cell lines; test: Cell growth inhibition, statements covering the three leukemia cell lines; format: cell-based, human
# [2] = system: BRD2, BRD3 and BRD4 proteins in MV4;11 cells; test: Western blotting of BET proteins in MV4; format: cell-based; settings: 3 h treatment
# [3] = system: c-Myc protein in RS4;11 cells; test: Western blotting of c-Myc in RS4; format: cell-based, human; settings: RS4;11 cell line
# [4] = system: c-Myc protein in MV4;11 cells; test: Western blotting of c-Myc in MV4; format: cell-based, human; settings: MV4;11 cell line
# [5] = system: cleaved PARP and cleaved Caspase 3 in RS4;11 cells; test: Western blotting of cleaved PARP / caspase 3 in RS4; format: cell-based, human; settings: RS4;11 cell line, 24 h treatment
# [6] = system: cleaved PARP and cleaved Caspase 3 in MV4;11 cells; test: Western blotting of cleaved PARP / caspase 3 in MV4; format: cell-based, human; settings: MV4;11 cell line
# GSPT1 protein = GSPT1 protein (Homo sapiens, UniProt P15170); test: Western blotting of GSPT1 in MV4; format: cell-based; settings: MV4;11 and RS4;11 cells
# MOLM-13 cells = test: Apoptosis by flow cytometry; format: cell-based, human; settings: MOLM-13, as low as 1 nM, 24 h treatment
# MV4;11 cells = test: Apoptosis by flow cytometry; format: cell-based, human; settings: MV4;11, as low as 1 nM, 24 h treatment
# RS4;11 cells = test: Apoptosis by flow cytometry; format: cell-based, human
# [7] = system: BRD2, BRD3, BRD4, c-Myc and cleaved PARP in RS4;11 xenograft tumors; test: Pharmacodynamic analysis in RS4; format: in vivo, SCID mice
# [8] = Tissue distribution in mice bearing RS4; format: in vivo, SCID mice; settings: IV, 5mg/kg; for Concentration of QCA570 in Heart / Concentration of QCA570 in Intestine / Concentration of QCA570 in Kidney / Concentration of QCA570 in Liver / Concentration of QCA570 in Lung / Concentration of QCA570 in Tumor / Concentration of QCA570 in plasma: individual mice
# RS4;11 xenograft tumors = test: Anti-tumor efficacy, RS4; format: in vivo, SCID mice
# [9] = system: BRD2, BRD3 and BRD4 proteins in RS4;11 cells; settings: 3 h treatment
# MV4;11 xenograft tumors = settings: 3 times per week for 2 weeks, intravenous
# [10] = RS4;11 xenograft, all treatment groups
# Sequence of GSPT1 protein (P15170 whole entry): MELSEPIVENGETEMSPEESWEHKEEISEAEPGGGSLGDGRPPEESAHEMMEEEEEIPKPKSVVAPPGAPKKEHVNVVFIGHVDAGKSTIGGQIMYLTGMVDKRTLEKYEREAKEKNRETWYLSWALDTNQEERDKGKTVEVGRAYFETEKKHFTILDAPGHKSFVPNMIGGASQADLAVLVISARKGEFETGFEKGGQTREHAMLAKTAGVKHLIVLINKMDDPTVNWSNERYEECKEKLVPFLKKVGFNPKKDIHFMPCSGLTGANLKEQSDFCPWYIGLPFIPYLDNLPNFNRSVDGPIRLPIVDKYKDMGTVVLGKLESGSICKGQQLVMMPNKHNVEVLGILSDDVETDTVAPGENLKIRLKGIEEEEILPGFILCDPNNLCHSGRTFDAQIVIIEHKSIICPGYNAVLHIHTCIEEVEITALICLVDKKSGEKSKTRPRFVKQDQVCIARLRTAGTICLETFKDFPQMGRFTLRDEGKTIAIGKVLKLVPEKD
substance,measurement,setting,value
"3-(4-(5-(4-((3-Benzyl-9-methyl-4H,6H-thieno[2,3-e][1,2,4]triazolo[3,4-c][1,4]oxazepin-2-yl)ethynyl)-1H-pyrazol-1-yl)pent-1-yn-1-yl)-1-oxoisoindolin-2-yl)piperidine-2,6-dione [Compound 35]",times more potent than ZBC260 in cell growth inhibition,[1]; MV4;11 and MOLM-13 cell lines,> 10 times
same,times more potent than ARV-771 in cell growth inhibition,[1]; each of the three cell lines,> 10 times
same,times more potent than ARV-825 in cell growth inhibition,[1]; each of the three cell lines,> 10 times
same,times more potent than dBET1 in cell growth inhibition,[1]; each of the three cell lines,"> 1,000 times"
same,concentration effective in reducing BRD2 protein level,[2],30 to 100 pM
same,lowest concentration very effective in reducing BRD3 and BRD4 protein levels,[2],≤ 10 pM
same,lowest concentration very effective in reducing c-Myc protein levels,[3],≤ 10 pM
same,lowest concentration very effective in reducing c-Myc protein levels,[4],≤ 30 pM
same,caspase 3 cleavage,[5],not detected
same,lowest concentration inducing robust cleavage of PARP,[5],0.1 to 0.3 nM
same,lowest concentration inducing caspase 3 activation,[6],≤ 0.3 nM
same,lowest concentration inducing robust cleavage of PARP,[6]; 24 h treatment,0.1 to 0.3 nM
same,effect on GSPT1 protein,GSPT1 protein,no effect
same,cells undergoing apoptosis,MOLM-13 cells,> 60%
same,cells undergoing apoptosis,MV4;11 cells,> 60%
same,apoptosis induction,"RS4;11 cells; RS4;11, 0.1 nM, 24 h treatment",minimal effect
same,cells undergoing apoptosis,"RS4;11 cells; RS4;11, 0.1 nM, 48 h treatment",> 40%
same,cells undergoing apoptosis,"RS4;11 cells; RS4;11, 0.3–10 nM, 24 h treatment",15–30%
same,"levels of BRD2, BRD3 and BRD4 proteins in tumor tissue","[7]; single intravenous dose 1 and 5 mg/kg, 1 h and 6 h time-points",dramatically reduces
same,c-Myc protein levels in tumor tissue,"[7]; single intravenous dose 1 and 5 mg/kg, all time points (1, 6, 24 h)",reduces c-Myc protein levels dramatically
same,cleavage of PARP in tumor tissue,"[7]; single intravenous dose, 6 h and 24 h time-points",very effective in inducing cleavage of PARP
same,"reduction of BRD4 protein level at 24 h, 5 mg/kg compared with 1 mg/kg","[7]; single intravenous dose, 24 h time-point",more effective
same,Concentration of QCA570 in Heart,"[8]; 1 h, listed as QCA570, 5 mg/kg",373 ng/g and 288 ng/g
same,Concentration of QCA570 in Intestine,"[8]; 1 h, listed as QCA570, 5 mg/kg",1283 ng/g and 1009 ng/g
same,Concentration of QCA570 in Kidney,"[8]; 1 h, listed as QCA570, 5 mg/kg",649 ng/g and 675 ng/g
same,Concentration of QCA570 in Liver,"[8]; 1 h, listed as QCA570, 5 mg/kg",1227 ng/g and 1720 ng/g
same,Concentration of QCA570 in Lung,"[8]; 1 h, listed as QCA570, 5 mg/kg",1041 ng/g and 696 ng/g
same,Concentration of QCA570 in Tumor,"[8]; 1 h, listed as QCA570, 5 mg/kg",642 ng/g and 405 ng/g
same,Concentration of QCA570 in plasma,"[8]; 1 h, listed as QCA570, 5 mg/kg",1575 ng/mL and 2360 ng/mL
same,Concentration of QCA570 in Heart,"[8]; 3 h, listed as QCA570, 5 mg/kg",17 ng/g and 22 ng/g
same,Concentration of QCA570 in Intestine,"[8]; 3 h, listed as QCA570, 5 mg/kg",50 ng/g and 92 ng/g
same,Concentration of QCA570 in Kidney,"[8]; 3 h, listed as QCA570, 5 mg/kg",40 ng/g and 49 ng/g
same,Concentration of QCA570 in Liver,"[8]; 3 h, listed as QCA570, 5 mg/kg",57 ng/g and 209 ng/g
same,Concentration of QCA570 in Lung,"[8]; 3 h, listed as QCA570, 5 mg/kg",35 ng/g and 89 ng/g
same,Concentration of QCA570 in Tumor,"[8]; 3 h, listed as QCA570, 5 mg/kg",177 ng/g and 199 ng/g
same,Concentration of QCA570 in plasma,"[8]; 3 h, listed as QCA570, 5 mg/kg",47 ng/mL and 263 ng/mL
same,Concentration of QCA570 in Heart,[8]; 6 h,BLQ
same,Concentration of QCA570 in Intestine,[8]; 6 h,BLQ
same,Concentration of QCA570 in Kidney,[8]; 6 h,BLQ
same,Concentration of QCA570 in Liver,[8]; 6 h,BLQ
same,Concentration of QCA570 in Lung,[8]; 6 h,BLQ
same,Concentration of QCA570 in plasma,[8]; 6 h,BLQ
same,Concentration of QCA570 in Tumor,"[8]; 6 h, listed as QCA570, 5 mg/kg",87.9 ng/g and 68.7 ng/g
same,"Concentration of QCA570 in Heart, mean",[8]; Mean (1h),331 ng/g
same,"Concentration of QCA570 in Intestine, mean",[8]; Mean (1h),1146 ng/g
same,"Concentration of QCA570 in Kidney, mean",[8]; Mean (1h),662 ng/g
same,"Concentration of QCA570 in Liver, mean",[8]; Mean (1h),1473 ng/g
same,"Concentration of QCA570 in Lung, mean",[8]; Mean (1h),868 ng/g
same,"Concentration of QCA570 in Tumor, mean",[8]; Mean (1h),524 ng/g
same,"Concentration of QCA570 in plasma, mean",[8]; Mean (1h),1968 ng/mL
same,"Concentration of QCA570 in Heart, mean",[8]; Mean (3h),19 ng/g
same,"Concentration of QCA570 in Intestine, mean",[8]; Mean (3h),71 ng/g
same,"Concentration of QCA570 in Kidney, mean",[8]; Mean (3h),44 ng/g
same,"Concentration of QCA570 in Liver, mean",[8]; Mean (3h),133 ng/g
same,"Concentration of QCA570 in Lung, mean",[8]; Mean (3h),62 ng/g
same,"Concentration of QCA570 in Tumor, mean",[8]; Mean (3h),188 ng/g
same,"Concentration of QCA570 in plasma, mean",[8]; Mean (3h),155 ng/mL
same,"Concentration of QCA570 in Heart, mean",[8]; Mean (6 h),BLQ
same,"Concentration of QCA570 in Intestine, mean",[8]; Mean (6 h),BLQ
same,"Concentration of QCA570 in Kidney, mean",[8]; Mean (6 h),BLQ
same,"Concentration of QCA570 in Liver, mean",[8]; Mean (6 h),BLQ
same,"Concentration of QCA570 in Lung, mean",[8]; Mean (6 h),BLQ
same,"Concentration of QCA570 in Tumor, mean",[8]; Mean (6 h),78 ng/g
same,"Concentration of QCA570 in plasma, mean",[8]; Mean (6 h),BLQ
same,tumor response,"RS4;11 xenograft tumors; RS4;11 xenograft, 5 mg/kg weekly",complete tumor growth inhibition but not tumor regression
same,tumor response,"RS4;11 xenograft tumors; RS4;11 xenograft, 1, 2.5 and 5 mg/kg, 3 times per week for 3 weeks",complete and long-lasting tumor regression
same,animal weight loss,RS4;11 xenograft tumors; [10],minimal animal weight loss
same,signs of toxicity,RS4;11 xenograft tumors; [10],no other signs of toxicity
same,"degradation of BRD2, BRD3 and BRD4 proteins",[9]; 0.5 nM,complete degradation
same,concentration effective in reducing BRD2 protein level,[9],30 to 100 pM
same,lowest concentration very effective in reducing BRD3 and BRD4 protein levels,[9],≤ 10 pM
same,tumor response,MV4;11 xenograft tumors; 1 mg/kg,complete tumor regression
same,tumor response,MV4;11 xenograft tumors; 5 mg/kg,complete and long-lasting tumor regression

# — paper PMC6545111 (Journal of medicinal chemistry, 2018)
